How the values were obtained:
[1] = system: HUVEC primary endothelial cells; test: HUVEC proliferation assay (CyQUANT Direct); assay type: cell-based; conditions: Homo sapiens, 72 h, 3 days incubation
Method: HUVEC Proliferation Assay
Proliferation of HUVEC primary endothelial cells was used as cell-based mechanistical assay.^25 Applying the CyQUANT@ Direct Cell Proliferation Assay (Invitrogen C35011) which is based on a cell-permeant fluorescent DNA-binding dye, DNA content is used as a direct measure for cell number. Pooled HUVEC cells (Promocell C-12203) are cultivated in the medium supplied by Promocell (Cat No C-22020) for maximum 4 passages. For the assay 500 cells/well are seeded into black 384-well culture plates with clear bottom in 70 μl culture medium and incubated for 6 hours at 37° C., 5% CO2. 10 μl prediluted test compounds are added and cells incubated for 3 days at 37° C., 5% CO2 before measurement of DNA content. CyQUANT detection reagent is prepared according to the manufacturers protocol, 20 μl/well added and incubated at 37° C., 5% CO2 for at least 1 h before measurement of fluorescence at Envision multimode reader (Perkin-Elmer, Waltham) with excitation 480 nm and emission 535 nm (bottom read mode). The assay is performed as dose response with 10 compound dilutions. Inhibitory values (IC50) were determined using the program ASSAY ANALYZER® from GeneData (Basel, Switzerland).

[2] = target: MetAP-2 (Homo sapiens, UniProt P50579); test: Biochemical activity testing of MetAP-2 (enzyme-coupled assay, Met-Ala-Ser substrate); parameters: N-terminal His tag human rec MetAP2 (prepared in house, AA 2-478, final concentration (fc) 123 nM); His tag (N); TEV cleavage site (N); made in house
Method: Biochemical Activity Testing of MetAP-2
MetAP-2 activity was determined by an enzyme-coupled assay using the tripeptide Met-Ala-Ser (MAS) as substrate and recombinant human MetAP-2 (His-Tev-MetAP-2, prepared at Merck). The released methionine is converted by L-amino acid oxidase (AAO) to oxidized Methionine and hydrogen peroxide is released. In a second step horse radish peroxidase catalyzes the oxidation of the leuko dye dianisidine to oxidized dianisidine using hydrogen peroxide as co-substrate. The produced dianisidine ox was detected photometrically as increase in absorbance at 450 nm. Met-AP2 activity was determined in a kinetic measurement mode. The release of one molecule methionine corresponds to the production of one molecule dianisidine ox. The MetAP2 enzymatic activity is directly corresponding to the increase in absorbance per time.
In detail, the assay was performed in 384 well microtiter plate (Greiner 78110 MTP, transparent) in a total reaction volume of 50 μl at 22° C. 0.35 μg of N-terminal His tag human rec MetAP2 (prepared in house, AA 2-478, final concentration (fc) 123 nM), 1 unit horse radish Peroxidase (Roche, Mannheim), 0.02 unit L-amino acid oxidase (Merck, Darmstadt), 0.6 mM dianisidine (Merck, Darmstadt, dissolved in 50 mM HCl, 10% DMSO) were incubated in the absence or presence of the test compound (10 dilution concentrations) in 100 mM Hepes, 50 mM NaCl, 50 μM MnCl2 at pH 7.0 for 15 min at 22° C. The reaction was started by the addition of 500 μM (fc) MAS peptide (Merck, Darmstadt). After mixing the first absorbance measurement was performed on an Envision multimode reader (Perkin-Elmer, Waltham) at wavelength of 450 nm. The reaction was incubated at 22° C. for additional 45 min and the second absorbance measurement was performed. The increase of absorbance per time was determined. The control value used was the inhibitor-free reaction with 0.5% DMSO (fc). As pharmacological inhibitor control Fumagillin (Merck, Darmstadt) in a final concentration of 5 μM was used. The inhibitory values (IC50) were determined using the program ASSAY ANALYZER® from GeneData (Basel, Switzerland).

MetAP-2, sequence (P50579 2-478): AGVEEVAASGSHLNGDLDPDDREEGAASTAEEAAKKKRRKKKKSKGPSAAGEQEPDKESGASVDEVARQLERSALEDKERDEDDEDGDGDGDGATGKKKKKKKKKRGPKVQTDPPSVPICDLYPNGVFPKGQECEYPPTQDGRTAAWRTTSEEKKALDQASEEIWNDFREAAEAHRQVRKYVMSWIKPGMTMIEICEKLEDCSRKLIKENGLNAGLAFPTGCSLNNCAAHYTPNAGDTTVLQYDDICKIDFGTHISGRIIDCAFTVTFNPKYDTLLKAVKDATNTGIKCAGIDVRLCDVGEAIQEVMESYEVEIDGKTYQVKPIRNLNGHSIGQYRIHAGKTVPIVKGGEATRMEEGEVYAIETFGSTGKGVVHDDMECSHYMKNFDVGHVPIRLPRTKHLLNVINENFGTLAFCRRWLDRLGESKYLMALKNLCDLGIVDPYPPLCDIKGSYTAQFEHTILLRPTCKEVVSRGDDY

SMILES | IC50 [1] | IC50 [2]
O=C1CCC(N2C(=O)c3cccc(NCCOCCOCCOCCOCCOCCNC(=O)c4cc5cc(N6CCC(O)(C(=O)NCc7cc(F)cc(F)c7)C6=O)ccc5[nH]4)c3C2=O)C(=O)N1 (stereo not shown) [Compound A1, 5-[3-[(3,5-difluorophenyl)methylcarbamoyl]-3-hydroxy-2-oxo-pyrrolidin-1-yl]-N-[2-[2-[2-[2-[2-[2-[[2-(2,6-dioxo-3-piperidyl)-1,3-dioxo-isoindolin-4-yl]amino]ethoxy]ethoxy]ethoxy]ethoxy]ethoxy]ethyl]-1H-indole-2-carboxamide] | 25 µM | 0.19 µM
O=C1CCC(N2C(=O)c3ccc(NCCOCCOCCOCCOCCNC(=O)c4cc5cc(N6CCC(O)(C(=O)NCc7cc(F)cc(F)c7)C6=O)ccc5[nH]4)cc3C2=O)C(=O)N1 (stereo not shown) [Compound A2, 5-[3-[(3,5-difluorophenyl)methylcarbamoyl]-3-hydroxy-2-oxo-pyrrolidin-1-yl]-N-[2-[2-[2-[2-[2-[[2-(2,6-dioxo-3-piperidyl)-1,3-dioxo-isoindolin-5-yl]amino]-ethoxy]ethoxy]ethoxy]ethoxy]ethyl]-1H-indole-2-carboxamide] | 30 µM | 0.25 µM

From US20220062258A1, “Heterocyclic derivatives” (Merck Patent GmbH, priority 2019, published 2022)
